Legend:
[1] = tested on: CHEAL; experiment: Example III: post-emergence foliar-applied weed control in cereal crops, greenhouse; type: in vivo, Chenopodium album L.; conditions: 21 DAA
Experimental: (§1) Seeds of the desired test plant species were planted in Sun Gro MetroMix® 306 planting mixture, which typically has a pH of 6.0 to 6.8 and an organic matter content of about 30 percent, in plastic pots with a surface area of 103.2 square centimeters (cm^2). When required to ensure good germination and healthy plants, a fungicide treatment and/or other chemical or physical treatment was applied. The plants were grown for 7-36 days in a greenhouse with an approximate 14 hour photoperiod which was maintained at about 18° C. during the day and 17° C. during the night. Nutrients and water were added on a regular basis and supplemental lighting was provided with overhead metal halide 1000-Watt lamps as necessary. The plants were employed for testing when they reached the second or third true leaf stage.
(§2) Treatments consisted of the benzyl ester of 4-amino-3-chloro-5-fluoro-6-(4-chloro-2-fluoro-3-methoxy-phenyl)pyridine-2-carboxylic acid (Compound A), formulated as an SC (suspension concentrate), and a second cereal herbicide alone and in combination.
(§3) Measured aliquots of the benzyl ester of 4-amino-3-chloro-5-fluoro-6-(4-chloro-2-fluoro-3-methoxy-phenyl)pyridine-2-carboxylic acid (Compound A) were placed in 25 milliliter (mL) glass vials and diluted in a volume of 1.25% (v/v) Agri-dex crop oil concentrated to obtain stock solutions. Compound requirements are based upon a 12 mL application volume at a rate of 187 liters per hectare (L/ha). Spray solutions of the second cereal herbicide and experimental compound mixtures were prepared by adding the stock solutions to the appropriate amount of dilution solution to form 12 mL spray solution with active ingredients in two- and three-way combinations. Formulated compounds were applied to the plant material with an overhead Mandel track sprayer equipped with an 8002E nozzle calibrated to deliver 187 L/ha over an application area of 0.503 square meters (m^2) at a spray height of 18 inches (46 cm) above average plant canopy. Control plants were sprayed in the same manner with the solvent blank.
(§4) The treated plants and control plants were placed in a greenhouse as described above and watered by sub-irrigation to prevent wash-off of the test compounds. After 20-22 days, the condition of the test plants as compared with that of the control plants was determined visually and scored on a scale of 0 to 100 percent where 0 corresponds to no injury and 100 corresponds to complete kill.
(§5) Colby's equation was used to determine the herbicidal effects expected from the mixtures (Colby, S. R. 1967. Calculation of the synergistic and antagonistic response of herbicide combinations. Weeds 15:20-22.).

[2] = tested on: KCHSC; experiment: as above; type: in vivo, Kochia scoparia (L.) Schrad.; conditions: 21 DAA
Experimental: as §1, §2, §3, §4, §5

[3] = tested on: GALAP; experiment: as above; type: in vivo, Galium aparine L.; conditions: 21 DAA
Experimental: as §1, §2, §3, §4, §5

[4] = tested on: SASKR; experiment: as above; type: in vivo, Salsola tragus L.; conditions: 21 DAA
Experimental: as §1, §2, §3, §4, §5

[5] = tested on: SINAR; experiment: as above; type: in vivo, Sinapis arvensis L.; conditions: 21 DAA
Experimental: as §1, §2, §3, §4, §5

[6] = tested on: PAPRH; experiment: as above; type: in vivo, Papaver rhoeas L.; conditions: 21 DAA
Experimental: as §1, §2, §3, §4, §5

[7] = tested on: STEME; experiment: as above; type: in vivo, Stellaria media (L.) Vill.; conditions: 21 DAA
Experimental: as §1, §2, §3, §4, §5

[8] = tested on: CYPIR; experiment: Example I: postemergence foliar-applied weed control, greenhouse; type: in vivo, Cyperus iria L. (rice flatsedge); conditions: 20 DAA
From the text: (§6) Seeds or nutlets of the desired test plant species were planted in a soil matrix prepared by mixing a loam or sandy loam soil (e.g., 28.6 percent silt, 18.8 percent clay, and 52.6 percent sand, with a pH of about 5.8 and an organic matter content of about 1.8 percent) and calcareous grit in an 80 to 20 ratio. The soil matrix was contained in plastic pots with a volume of 1 quart and a surface area of 83.6 square centimeters (cm^2). When required to ensure good germination and healthy plants, a fungicide treatment and/or other chemical or physical treatment was applied. The plants were grown for 8-22 days in a greenhouse with an approximate 14 hr photoperiod which was maintained at about 29° C. during the day and 26° C. during the night. Nutrients (Peters Excel® 15-5-15 5-Ca 2-Mg and iron chelate) were applied in the irrigation solution as needed and water was added on a regular basis. Supplemental lighting was provided with overhead metal halide 1000-Watt lamps as necessary. The plants were employed for testing when they reached the first through fourth true leaf stage.
(§7) Treatments consisted of the acid or esters of 4-amino-3-chloro-5-fluoro-6-(4-chloro-2-fluoro-3-methoxy-phenyl)pyridine-2-carboxylic acid (Compound A), each formulated as an SC (suspension concentrate), and various herbicidal components alone and in combination. Forms of compound A were applied on an acid equivalent basis.
(§8) Other herbicidal components were applied on an active ingredient basis and included very long chain fatty acid (VLCFA) synthesis-inhibiting and fatty acid/lipid synthesis-inhibiting herbicides acetochlor (technical grade material), acetochlor+dichlormid formulated as Topnotch®, pretilachlor (technical grade material), butachlor formulated as Butachlor EC, fentrazamide formulated as Fentrazamide EC, thiobencarb formulated as Bolero® 8EC, cafenstrole formulated as Himeadow® WP or Lapost® Flowable, benfuresate formulated as Full Shot®, dimethenamid-P formulated as Outlook®, indanofan (technical grade material), flufenacet formulated as Define® DF, mefenacet (technical grade material), S-metolachlor formulated as Dual® II Magnum, pethoxamid formulated as Successor® 600, and pyroxasulfone (technical grade material).
(§9) Treatment requirements were calculated based upon the rates being tested, the concentration of active ingredient or acid equivalent in the formulation, and a 12 mL application volume at a rate of 187 L/ha.
(§10) For treatments comprised of formulated compounds, measured amounts of compounds were placed individually in 25 mL glass vials and diluted in a volume of 1.25% (v/v) Agri-Dex® crop oil concentrated to obtain 12× stock solutions. […] Application solutions were prepared by adding an appropriate amount of each stock solution (e.g., 1 mL) and diluted to the appropriate final concentrations with the addition of 10 mL of an aqueous mixture of 1.25% (v/v) crop oil concentrate so that the final spray solutions contained 1.25+/−0.05% (v/v) crop oil concentrate.
(§11) For treatments comprised of technical compounds, weighed amounts can be placed individually in 25 mL glass vials and dissolved in a volume of 97:3 v/v acetone/DMSO to obtain 12× stock solutions. […] Application solutions can be prepared by adding an appropriate amount of each stock solution (e.g., 1 mL) and diluted to the appropriate final concentrations with the addition of 10 mL of an aqueous mixture of 1.5% (v/v) crop oil concentrate so that the final spray solutions contain 1.25% (v/v) crop oil concentrate. When technical materials are used, the concentrated stock solutions can be added to the spray solutions so that the final acetone and DMSO concentrations of the application solutions are […], respectively. […]

[9] = tested on: ECHOR; experiment: Example II: in-water applied weed control, transplanted paddy rice, greenhouse; type: in vivo, Echinochloa oryzoides (Ard.) Fritsch (early watergrass)
Experimental: (§12) Weed seeds or nutlets of the desired test plant species were planted in puddled soil (mud) prepared by mixing a shredded, non-sterilized mineral soil (50.5 percent silt, 25.5 percent clay, and 24 percent sand, with a pH of about 7.6 and an organic matter content of about 2.9 percent) and water at a 1:1 volumetric ratio. The prepared mud was dispensed in 365 mL aliquots into 16-ounce (oz.) non-perforated plastic pots with a surface area of 86.59 square centimeters (cm^2) leaving a headspace of 3 centimeters (cm) in each pot. Mud was allowed to dry overnight prior to planting or transplanting. Rice seeds were planted in Sun Gro MetroMix® 306 planting mixture, which typically has a pH of 6.0 to 6.8 and an organic matter content of about 30 percent, in plastic plug trays. Seedlings at the second or third leaf stage of growth were transplanted into 840 mL of mud contained in 32-oz. non-perforated plastic pots with a surface area of 86.59 cm^2 4 days prior to herbicide application. The paddy was created by filling the headspace of the pots with 2.5 to 3 cm of water. When required to ensure good germination and healthy plants, a fungicide treatment and/or other chemical or physical treatment was applied. The plants were grown for 4-22 days in a greenhouse with an approximate 14 hr photoperiod which was maintained at about 29′C during the day and 26° C. during the night. Nutrients were added as Osmocote® (19:6:12, N:P:K+ minor nutrients) at 2 g per 16-oz. pot and 4 g per 32-oz. pot. Water was added on a regular basis to maintain the paddy flood, and supplemental lighting was provided with overhead metal halide 1000-Watt lamps as necessary. The plants were employed for testing when they reached the first through fourth true leaf stage.
as §7, with “(compound A)” for “(Compound A),”, “concentrate)” for “concentrate),”
(§13) The herbicidal components were applied on an active ingredient basis and included very long chain fatty acid (VLCFA) synthesis-inhibiting and fatty acid/lipid synthesis-inhibiting herbicides acetochlor (technical grade material), acetochlor+dichlormid formulateded as Topnotch®, pretilachlor (technical grade material), butachlor formulated as Butachlor EC, fentrazamide formulated as Fentrazamide EC, thiobencarb formulated as Bolero® 8EC, cafenstrole formulated as Himeadow® WP or Lapost® Flowable, benfuresate formulated as Full Shot®, anilofos (technical grade material), mefenacet (technical grade material), molinate (technical grade material), and thenylchlor (technical grade material).
(§14) Treatment requirements for each compound or herbicidal component were calculated based upon the rates being tested, the concentration of active ingredient or acid equivalent in the formulation, an application volume of 2 mL per component per pot, and an application area of 86.59 cm^2 per pot.
(§15) For formulated compounds, a measured amount was placed in an individual 100 or 200 mL glass vial and was dissolved in a volume of 1.25% (v/v) Agri-Dex® crop oil concentrate to obtain application solutions.
(§16) For technical grade compounds, a weighed amount was placed in an individual 100 to 200 mL glass vial and was dissolved in a volume of acetone to obtain concentrated stock solutions. […] The concentrated stock solutions obtained were diluted with an equivalent volume of an aqueous mixture containing 2.5% (v/v) crop oil concentrate so that the final application solutions contained 1.25% (v/v) crop oil concentrate.
(§17) Applications were made by injecting with a pipetter appropriate amounts of the application solutions, individually and sequentially, into the aqueous layer of the paddy. Control plants were treated in the same manner with the solvent blank. […]

[10] = tested on: DIGSA; experiment: Example I: postemergence foliar-applied weed control, greenhouse; type: in vivo, Digitaria sanguinalis (L.) Scop. (large crabgrass); conditions: 20 DAA; 560 gai/ha
From the text: as §6, §7, §8, §9, §10, §11

[11] = tested on: ISCRU; experiment: as above; type: in vivo, Ischaemum rugosum Salisb. (saramollagrass); conditions: 21 DAA
From the text: as §6, §7, §8, §9
For treatments comprised of formulated compounds, measured amounts of compounds were placed individually in 25 mL glass vials and diluted in a volume of 1.25% (v/v) Agri-Dex® crop oil concentrated to obtain 12× stock solutions. […]

[12] = tested on: CYPRO; experiment: Example II: in-water applied weed control, transplanted paddy rice, greenhouse; type: in vivo, Cyperus rotundus L. (purple nutsedge); conditions: 20 DAA
Experimental: as §12
as §7, with “(compound A)” for “(Compound A),”, “concentrate)” for “concentrate),”
as §13, §14, §15, §16, §17

[13] = tested on: ECHCO; experiment: Example I: postemergence foliar-applied weed control, greenhouse; type: in vivo, Echinochloa colona (L.) Link (junglerice); conditions: 20 DAA
From the text: as §6, §7, §8, §9, §10, §11

Structure (SMILES): CCCN(CCC)C(=O)SCc1ccccc1 [Prosulfocarb, S-(phenylmethyl) dipropylcarbamothioate]
- Visual Weed Control CHEAL Obs ([1]; 1000 gai/ha): 10%
- Visual Weed Control CHEAL Obs ([1]; 2000 gai/ha): 15%
- Visual Weed Control KCHSC Obs ([2]; 1000 gai/ha): 10%
- Visual Weed Control KCHSC Obs ([2]; 2000 gai/ha): 15%
- Visual Weed Control KCHSC Obs ([2]; 4000 gai/ha): 75%
- Visual Weed Control GALAP Obs ([3]; 1000 gai/ha): 15%
- Visual Weed Control GALAP Obs ([3]; 2000 gai/ha): 40%
- Visual Weed Control GALAP Obs ([3]; 4000 gai/ha): 67%
- Visual Weed Control SASKR Obs ([4]; 1000 gai/ha): 5%
- Visual Weed Control SASKR Obs ([4]; 2000 gai/ha): 5%
- Visual Weed Control SASKR Obs ([4]; 4000 gai/ha): 63%
- Visual Weed Control SINAR Obs ([5]; 1000 gai/ha): 13%
- Visual Weed Control SINAR Obs ([5]; 2000 gai/ha): 18%
- Visual Weed Control PAPRH Obs ([6]; 1000 gai/ha): 5%
- Visual Weed Control PAPRH Obs ([6]; 2000 gai/ha): 10%
- Visual Weed Control PAPRH Obs ([6]; 4000 gai/ha): 13%
- Visual Weed Control STEME Obs ([7]; 1000 gai/ha): 0%
- Visual Weed Control STEME Obs ([7]; 2000 gai/ha): 10%
- Visual Weed Control STEME Obs ([7]; 4000 gai/ha): 73%

Structure (SMILES): CCN(CC)C(=O)SCc1ccc(Cl)cc1 [Thiobencarb, S-[(4-chlorophenyl)methyl]N,N-diethylcarbamothioate]
- Visual Weed Control Obs ([8]; 560 gai/ha): 0%
- Visual Weed Control Obs ([8]; 1120 gai/ha): 0%
- Visual Weed Control Obs ([8]; 2240 gai/ha): 0%
- Visual Weed Control (%) - 20 DAA ECHOR Obs ([9]; 1120 gai/ha): 60%
- pest or weed control at 1120 g/ha ([9]; Echinochloa oryzoides, 480 h, 1120 gai/ha, 20 DAA, read-out: Visual Weed Control ECHOR Obs): 60%
- pest or weed control at 2240 g/ha ([9]; Echinochloa oryzoides, 480 h, 2240 gai/ha, 20 DAA, read-out: Visual Weed Control ECHOR Obs): 90%
- Visual Weed Control Obs [10]: 20%
- Visual Weed Control Obs ([11]; 1120 gai/ha): 0%
- Visual Weed Control Obs ([11]; 2240 gai/ha): 0%
- Visual Weed Control CYPRO Obs ([12]; 1120 gai/ha): 0%
- Visual Weed Control CYPRO Obs ([12]; 2240 gai/ha): 0%
- Visual Weed Control Obs ([13]; 560 gai/ha): 45%
- Visual Weed Control Obs ([13]; 1120 gai/ha): 40%

Source: patent publication US20130310256A1, “HERBICIDAL COMPOSITIONS COMPRISING 4-AMINO-3-CHLORO-5-FLUORO-6-(4-CHLORO-2-FLUORO-3-METHOXYPHENYL) PYRIDINE-2-CARBOXYLIC ACID OR A DERIVATIVE THEREOF AND VLCFA AND LIPID SYNTHESIS INHIBITING HERBICIDES” (DOW AGROSCIENCES LLC, priority 2008, published 2013)
